Data reported in US10206394B2, “Herbicidal compounds” (Syngenta Participations AG, priority 2014, dated 2019).
Read-outs that look alike come from different tables or passages of the source.

Experiments:
Test in all cases: Glasshouse assay for herbicidal activity (pre- and post-emergence), percentage phytotoxicity
Type in all cases: in vivo
[1] = tested on: Echinochloa crus-galli (ECHCG); conditions: Echinochloa crus-galli
In short: (§1)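 Seeds were sown in standard soil in pots and grown one day (pre-emergence) or about 12 days (post-emergence) before herbicide application. Plants were kept at 24/18 °C (warm-climate) or 20/16 °C (cool-climate) day/night, 16 h light, 65% humidity, watered twice daily, and damage was scored visually at 15 DAA (POST) or 20 DAA (PRE).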

Avena fatua (AVEFA) = conditions: Avena fatua
In short: as §1

Lolium perenne (LOLPE) = conditions: Lolium perenne
In short: as §1

[2] = tested on: Alopecurus myosuroides (ALOMY); conditions: Alopecurus myosuroides
In short: as §1

[3] = post-emergence, 360 h, Rate 250 g/ha, post-emergence, assessed visually 15 DAA, 100%=total damage, 0%=no damage, read-out: Post-emergence herbicidal activity (percentage phytotoxicity) ECHCG POST
[4] = pre-emergence, 480 h, Rate 250 g/ha, pre-emergence, assessed visually 20 DAA, 100%=total damage, 0%=no damage, read-out: Pre-emergence herbicidal activity (percentage phytotoxicity) ECHCG PRE
[5] = pre-emergence, 480 h, Rate 250 g/ha, pre-emergence, assessed visually 20 DAA, 100%=total damage, 0%=no damage, read-out: Pre-emergence herbicidal activity (percentage phytotoxicity) AVEFA PRE
[6] = pre-emergence, 480 h, Rate 250 g/ha, pre-emergence, assessed visually 20 DAA, 100%=total damage, 0%=no damage, read-out: Pre-emergence herbicidal activity (percentage phytotoxicity) LOLPE PRE
[7] = pre-emergence, 480 h, Rate 250 g/ha, pre-emergence, assessed visually 20 DAA, 100%=total damage, 0%=no damage, read-out: Pre-emergence herbicidal activity (percentage phytotoxicity) ALOMY PRE
[8] = post-emergence, 360 h, POST-emergence, rate 250 g/ha, visual score 15 DAA (100%=total damage, 0%=no damage), read-out: Post-emergence herbicidal activity (percentage phytotoxicity) ECHCG POST
[9] = pre-emergence, 480 h, PRE-emergence, rate 250 g/ha, visual score 20 DAA (100%=total damage, 0%=no damage), read-out: Pre-emergence herbicidal activity (percentage phytotoxicity) ECHCG PRE
[10] = post-emergence, 360 h, POST-emergence, rate 250 g/ha, visual score 15 DAA (100%=total damage, 0%=no damage), read-out: Post-emergence herbicidal activity (percentage phytotoxicity) AVEFA POST
[11] = pre-emergence, 480 h, PRE-emergence, rate 250 g/ha, visual score 20 DAA (100%=total damage, 0%=no damage), read-out: Pre-emergence herbicidal activity (percentage phytotoxicity) AVEFA PRE
[12] = post-emergence, 360 h, POST-emergence, rate 250 g/ha, visual score 15 DAA (100%=total damage, 0%=no damage), read-out: Post-emergence herbicidal activity (percentage phytotoxicity) LOLPE POST
[13] = pre-emergence, 480 h, PRE-emergence, rate 250 g/ha, visual score 20 DAA (100%=total damage, 0%=no damage), read-out: Pre-emergence herbicidal activity (percentage phytotoxicity) LOLPE PRE
[14] = post-emergence, 360 h, POST-emergence, rate 250 g/ha, visual score 15 DAA (100%=total damage, 0%=no damage), read-out: Post-emergence herbicidal activity (percentage phytotoxicity) ALOMY POST
[15] = pre-emergence, 480 h, PRE-emergence, rate 250 g/ha, visual score 20 DAA (100%=total damage, 0%=no damage), read-out: Pre-emergence herbicidal activity (percentage phytotoxicity) ALOMY PRE

Row | Compound | pest or weed control at 250 g/ha [1, 3] | pest or weed control at 250 g/ha [1, 4] | pest or weed control at 250 g/ha (Avena fatua (AVEFA); [5]) | pest or weed control at 250 g/ha (Lolium perenne (LOLPE); [6]) | pest or weed control at 250 g/ha [2, 7] | pest or weed control at 250 g/ha [1, 8] | pest or weed control at 250 g/ha [1, 9] | pest or weed control at 250 g/ha (Avena fatua (AVEFA); [10]) | pest or weed control at 250 g/ha (Avena fatua (AVEFA); [11]) | pest or weed control at 250 g/ha (Lolium perenne (LOLPE); [12]) | pest or weed control at 250 g/ha (Lolium perenne (LOLPE); [13]) | pest or weed control at 250 g/ha [2, 14] | pest or weed control at 250 g/ha [2, 15] | also measured
1 | Cc1cc(-c2ncc(F)cn2)cc(C)c1C1C(=O)CC(CC(N)=O)C1=O (stereo not drawn) [Compound B107] |  |  |  |  |  |  |  |  |  |  |  |  |  | pest or weed control at 250 g/ha ([1]; post-emergence, 360 h, 250 g/ha, post-emergence, 15 DAA, visual assessment (100%=total damage, 0%=no damage), read-out: Post-emergence herbicidal activity (percentage phytotoxicity) ECHCG POST): 80%; pest or weed control at 250 g/ha ([1]; pre-emergence, 480 h, 250 g/ha, pre-emergence, 20 DAA, visual assessment (100%=total damage, 0%=no damage), read-out: Pre-emergence herbicidal activity (percentage phytotoxicity) ECHCG PRE): 60%; pest or weed control at 250 g/ha (Avena fatua (AVEFA); post-emergence, 360 h, 250 g/ha, post-emergence, 15 DAA, visual assessment (100%=total damage, 0%=no damage), read-out: Post-emergence herbicidal activity (percentage phytotoxicity) AVEFA POST): 90%; pest or weed control at 250 g/ha (Avena fatua (AVEFA); pre-emergence, 480 h, 250 g/ha, pre-emergence, 20 DAA, visual assessment (100%=total damage, 0%=no damage), read-out: Pre-emergence herbicidal activity (percentage phytotoxicity) AVEFA PRE): 10%; pest or weed control at 250 g/ha (Lolium perenne (LOLPE); post-emergence, 360 h, 250 g/ha, post-emergence, 15 DAA, visual assessment (100%=total damage, 0%=no damage), read-out: Post-emergence herbicidal activity (percentage phytotoxicity) LOLPE POST): 80%; pest or weed control at 250 g/ha (Lolium perenne (LOLPE); pre-emergence, 480 h, 250 g/ha, pre-emergence, 20 DAA, visual assessment (100%=total damage, 0%=no damage), read-out: Pre-emergence herbicidal activity (percentage phytotoxicity) LOLPE PRE): 20%; pest or weed control at 250 g/ha ([2]; post-emergence, 360 h, 250 g/ha, post-emergence, 15 DAA, visual assessment (100%=total damage, 0%=no damage), read-out: Post-emergence herbicidal activity (percentage phytotoxicity) ALOMY POST): 80%; pest or weed control at 250 g/ha ([2]; pre-emergence, 480 h, 250 g/ha, pre-emergence, 20 DAA, visual assessment (100%=total damage, 0%=no damage), read-out: Pre-emergence herbicidal activity (percentage phytotoxicity) ALOMY PRE): 60%
2 | Cc1cc(-c2ccc(F)cn2)cc(C)c1C1C(=O)CC(CC(=O)NCc2cccc(Cl)c2)C1=O (stereo not drawn) [Compound B401] |  |  |  |  |  |  |  |  |  |  |  |  |  | pest or weed control at 250 g/ha ([1]; post-emergence, 360 h, Rate 250 g/ha, post-emergence, visual assessment 15 DAA, 100%=total damage, 0%=no damage, read-out: Post-emergence herbicidal activity (percentage phytotoxicity) ECHCG POST): 100%; pest or weed control at 250 g/ha ([1]; pre-emergence, 480 h, Rate 250 g/ha, pre-emergence, visual assessment 20 DAA, 100%=total damage, 0%=no damage, read-out: Pre-emergence herbicidal activity (percentage phytotoxicity) ECHCG PRE): 80%; pest or weed control at 250 g/ha (Avena fatua (AVEFA); post-emergence, 360 h, Rate 250 g/ha, post-emergence, visual assessment 15 DAA, 100%=total damage, 0%=no damage, read-out: Post-emergence herbicidal activity (percentage phytotoxicity) AVEFA POST): 100%; pest or weed control at 250 g/ha (Avena fatua (AVEFA); pre-emergence, 480 h, Rate 250 g/ha, pre-emergence, visual assessment 20 DAA, 100%=total damage, 0%=no damage, read-out: Pre-emergence herbicidal activity (percentage phytotoxicity) AVEFA PRE): 70%; pest or weed control at 250 g/ha (Lolium perenne (LOLPE); post-emergence, 360 h, Rate 250 g/ha, post-emergence, visual assessment 15 DAA, 100%=total damage, 0%=no damage, read-out: Post-emergence herbicidal activity (percentage phytotoxicity) LOLPE POST): 90%; pest or weed control at 250 g/ha (Lolium perenne (LOLPE); pre-emergence, 480 h, Rate 250 g/ha, pre-emergence, visual assessment 20 DAA, 100%=total damage, 0%=no damage, read-out: Pre-emergence herbicidal activity (percentage phytotoxicity) LOLPE PRE): 90%; pest or weed control at 250 g/ha ([2]; post-emergence, 360 h, Rate 250 g/ha, post-emergence, visual assessment 15 DAA, 100%=total damage, 0%=no damage, read-out: Post-emergence herbicidal activity (percentage phytotoxicity) ALOMY POST): 90%; pest or weed control at 250 g/ha ([2]; pre-emergence, 480 h, Rate 250 g/ha, pre-emergence, visual assessment 20 DAA, 100%=total damage, 0%=no damage, read-out: Pre-emergence herbicidal activity (percentage phytotoxicity) ALOMY PRE): 80%
3 | C=CCCNC(=O)CC1CC(=O)C(c2c(C)cc(C)cc2C)C1=O (stereo not drawn) [Compound A94] | 80% | 60% | 20% | 90% | 90% |  |  |  |  |  |  |  |  | 
4 | C=C(C)CNC(=O)CC1CC(=O)C(c2c(C)cc(-c3ncc(F)cc3F)cc2C)C1=O (stereo not drawn) [Compound B200] |  |  |  |  |  | 100% | 100% | 100% | 90% | 100% | 100% | 100% | 100% | 
5 | COc1ccc(CNC(=O)CC2CC(=O)C(c3c(C)cc(-n4cc(Cl)cn4)cc3C)C2=O)cc1 (stereo not drawn) [Compound B224] |  |  |  |  |  | 90% | 70% | 80% | 50% | 80% | 70% | 80% | 80% | 
6 | Cc1cccc(CNC(=O)CC2CC(=O)C(c3c(C)cc(C)cc3C)C2=O)c1 (stereo not drawn) [Compound A88] | 80% | 70% | 0% | 100% | 90% |  |  |  |  |  |  |  |  | pest or weed control at 250 g/ha (Avena fatua (AVEFA); post-emergence, 360 h, Rate 250 g/ha, post-emergence, assessed visually 15 DAA, 100%=total damage, 0%=no damage, read-out: Post-emergence herbicidal activity (percentage phytotoxicity) AVEFA POST): 10%; pest or weed control at 250 g/ha (Lolium perenne (LOLPE); post-emergence, 360 h, Rate 250 g/ha, post-emergence, assessed visually 15 DAA, 100%=total damage, 0%=no damage, read-out: Post-emergence herbicidal activity (percentage phytotoxicity) LOLPE POST): 100%; pest or weed control at 250 g/ha ([2]; post-emergence, 360 h, Rate 250 g/ha, post-emergence, assessed visually 15 DAA, 100%=total damage, 0%=no damage, read-out: Post-emergence herbicidal activity (percentage phytotoxicity) ALOMY POST): 70%
